# Data reported in ChEMBL document CHEMBL1146077, “Synthesis and evaluation of heteroaryl-substituted dihydronaphthalenes and indenes: potent and selective inhibitors of aldosterone synthase (CYP11B2) for the treatment of congestive heart failure and myocardial fibrosis” (J Med Chem, 2006).
# Columns and labels:
# [1] = Permeability in Caco-2 cell; settings: human
# [2] = molecular target: T1, Cytochrome P450 11B2, mitochondrial (Homo sapiens, UniProt P19099); test: Inhibition of human CYP11B2 expressed in Schizosaccharomyces pombe at 500 nM
# T1 sequence (P19099 whole entry): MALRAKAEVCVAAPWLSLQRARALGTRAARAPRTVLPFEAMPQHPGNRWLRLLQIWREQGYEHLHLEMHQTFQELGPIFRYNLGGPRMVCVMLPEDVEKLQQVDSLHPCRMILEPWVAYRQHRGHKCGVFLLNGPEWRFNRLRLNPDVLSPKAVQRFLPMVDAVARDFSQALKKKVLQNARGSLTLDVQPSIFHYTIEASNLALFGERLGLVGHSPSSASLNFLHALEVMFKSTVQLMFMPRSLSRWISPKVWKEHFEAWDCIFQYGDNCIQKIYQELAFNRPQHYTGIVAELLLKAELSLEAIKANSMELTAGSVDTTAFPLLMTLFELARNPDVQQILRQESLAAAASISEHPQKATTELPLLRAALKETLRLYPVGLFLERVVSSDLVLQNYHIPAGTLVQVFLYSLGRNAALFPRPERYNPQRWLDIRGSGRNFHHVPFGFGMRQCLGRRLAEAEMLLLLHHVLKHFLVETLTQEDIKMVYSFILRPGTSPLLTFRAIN
# [3] = Half life in rat liver microsome; format: ADME; settings: liver microsomes
# [4] = molecular target: T1, Cytochrome P450 11B2, mitochondrial; test: Inhibition of human CYP11B2 expressed in V79 11B2 cells
# [5] = molecular target: T2, Cytochrome P450 11B1, mitochondrial (Homo sapiens, UniProt P15538); test: Inhibition of human CYP11B1 expressed in V79 11B1 cells
# T2 sequence (P15538 whole entry): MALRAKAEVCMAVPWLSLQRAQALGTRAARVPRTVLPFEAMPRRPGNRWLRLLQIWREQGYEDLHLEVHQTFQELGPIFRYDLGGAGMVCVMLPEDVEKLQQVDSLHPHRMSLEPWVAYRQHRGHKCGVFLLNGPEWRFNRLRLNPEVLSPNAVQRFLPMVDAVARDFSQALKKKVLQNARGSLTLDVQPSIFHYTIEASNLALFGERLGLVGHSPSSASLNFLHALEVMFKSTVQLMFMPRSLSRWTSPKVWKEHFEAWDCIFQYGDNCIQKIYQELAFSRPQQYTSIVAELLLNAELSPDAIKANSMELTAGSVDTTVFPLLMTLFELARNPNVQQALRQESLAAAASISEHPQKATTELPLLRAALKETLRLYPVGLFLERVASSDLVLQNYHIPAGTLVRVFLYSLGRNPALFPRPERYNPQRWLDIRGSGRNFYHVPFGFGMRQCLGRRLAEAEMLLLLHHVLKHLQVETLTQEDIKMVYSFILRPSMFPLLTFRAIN
Compound,Papp [1],inhibition at 0.5 µM [2],half-life [3],IC50 [4],IC50 [5]
CC(C(=O)O)c1cccc(C(=O)c2ccccc2)c1 (stereo not given) [KETOPROFEN],25.7 ×10⁻⁶ cm/s,,,,
COc1ccc2c(c1)CCC(c1cccnc1)=C2,13.5 ×10⁻⁶ cm/s,98%,1.12 h,,
COc1ccc2c(c1)CCC(n1ccnc1)=C2,,,,411 nM,
C(=C\c1cccnc1)/c1ccccc1,,25%,,,
C1=C(n2ccnc2)Cc2ccccc21,,33%,,448 nM,
C(=C/c1cccnc1)/c1ccccc1,,54%,,735 nM,288 nM
COc1ccc2c(c1)C=C(c1cccnc1)CC2,,,,45 nM,
C1=C(n2ccnc2)CCc2ccccc21,,,,334 nM,
COc1ccc2c(c1)CCC(c1ccncc1)=C2,,15%,,2830 nM,2530 nM
C[C@]12CC[C@H]3[C@@H](CCC4=CC(=O)CC[C@@]43C)[C@@H]1CC[C@@H]2O [TESTOSTERONE],9.4 ×10⁻⁶ cm/s,,,,
CCC1CC(c2cccnc2)=Cc2ccccc21 (stereo not given),,20%,,176 nM,1620 nM
